Literature values, collected in US12203859B2, “Device for detecting contamination with photosynthesis inhibitor and method for detecting contamination with photosynthesis inhibitor” (National Institute for Environmental Studies, priority 2019, dated 2025).

Test system: marine phytoplankton
Conditions: pesticides that directly inhibit photosynthesis of plants

## CSc1nc(NC2CC2)nc(NC(C)(C)C)n1 [Irgarol]
  fluorescence quantum efficiency of marine phytoplankton: decreases

## CN(C)C(=O)Nc1ccc(Cl)c(Cl)c1 [Diuron]
  fluorescence quantum efficiency of marine phytoplankton: decreases
